Measured values published in patent US20250108110A1, “COMBINATION THERAPY FOR USE IN TREATMENT OF NON-SMALL CELL LUNG CANCER” (Alethia Biotherapeutics Inc., priority 2022, published 2025).

Assays:
[1] = test system: advanced non-small cell lung cancer; conditions: second-line chemotherapy; cited from earlier work
[2] = Pharmacokinetics of AB-16B5 in treated subjects; format: in vivo, human; conditions: preliminary pharmacokinetics data (not shown), 12 mg/kg once weekly
Source text: Yet another secondary objective of this study is to determine the pharmacokinetics of AB-16B5 in this subject population.

Row | Molecule | efficacy of 50 mg/m^2 once every two weeks versus 75 mg/m^2 once every three weeks [1] | accumulation of the antibody in the treated subjects over time [2]
1 | CC(=O)O[C@@]12CO[C@@H]1C[C@H](O)[C@@]1(C)C(=O)[C@H](O)C3=C(C)[C@@H](OC(=O)[C@H](O)[C@@H](NC(=O)OC(C)(C)C)c4ccccc4)C[C@@](O)([C@@H](OC(=O)c4ccccc4)[C@H]21)C3(C)C [docetaxel] | as effective as | 
2 | AB-16B5: humanized IgG2 monoclonal antibody targeting sCLU for the inhibition of cancer-associated EMT; light chain SEQ ID NO:14, heavy chain SEQ ID NO:15 |  | accumulation
